The source of these data is patent publication US20180177749A1, “USE OF CYP EXPRESSION TO DIRECT THERAPEUTIC INTERVENTION IN CANCER” (REGENTS OF THE UNIVERSITY OF MINNESOTA, priority 2016, published 2018).

pIC50: −log10 of the molar value. Like-named read-outs stand apart in the source and are kept apart here.

This data set concerns the target T1, CYP2C8 (Homo sapiens, UniProt P10632).
T1 sequence (P10632 1-490): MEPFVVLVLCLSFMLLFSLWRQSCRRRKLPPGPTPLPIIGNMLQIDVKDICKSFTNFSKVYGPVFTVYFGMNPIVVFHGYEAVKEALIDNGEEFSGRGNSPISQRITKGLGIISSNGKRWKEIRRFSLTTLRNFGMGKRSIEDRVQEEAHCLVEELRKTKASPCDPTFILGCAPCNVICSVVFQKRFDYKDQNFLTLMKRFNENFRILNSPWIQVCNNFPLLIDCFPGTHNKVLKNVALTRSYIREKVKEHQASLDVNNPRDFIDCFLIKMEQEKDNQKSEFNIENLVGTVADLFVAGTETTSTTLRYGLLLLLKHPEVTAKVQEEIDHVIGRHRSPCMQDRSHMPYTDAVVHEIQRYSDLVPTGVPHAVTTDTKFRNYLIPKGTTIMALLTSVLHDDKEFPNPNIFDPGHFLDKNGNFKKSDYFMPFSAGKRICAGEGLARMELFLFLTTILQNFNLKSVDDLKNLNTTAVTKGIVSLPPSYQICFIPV
Put plainly: Recombinant microsomal CYP-mediated EET biosynthesis (CYP2C8 Supersomes). Details: host or cells: insect cells (microsomes). In kind it is biochemical. The protocol:
Samples were submitted to liquid chromatography-electrospray ionization/multiple reaction monitoring/mass spectrometry (LC-ESI/MRM/MS) analysis in a Thermo Electron Quantum Discovery Max triple quadrupole mass spectrometer (Thermo Finnigan, San Jose, Calif.) coupled with an Agilent 1100 HPLC (Santa Clara, Calif.), using argon as the collision gas. Negative ion monitoring was performed at the following diagnostic product ions: 319 m/z→155 m/z for 8,9-EET; 319 m/z→179 m/z for 11,12-EET; 319 m/z→219 m/z for 14,15-EET; 339 m/z→163 m/z for 8,9-[13C20]EET; 339 m/z→233 m/z for 11,12-[13C20]EET; and 339 m/z→259 m/z for 14,15-[^13C20]EET. Base-line resolution of EET regioisomers was achieved on a Phenomenex Luna C18 (2) reverse phase capillary column (250×0.5 mm, 5-μm particles) using the following mobile phase combinations: isocratic 5% B for 5 min, gradient 5-70% B for 5 min, hold at 70% for 30 min and then 95% for 10 min; A: 0.01% acetic acid in water, B: 0.01% acetic acid in acetonitrile; […] flow rate. A standard curve was obtained by linear regression of the peak area ratio of authentic EET regioisomers against internal standards. The amount of EETs in samples was calculated according to the standard curve. The (±)-5,6-EET regioisomer was not measured because it undergoes rapid internal degradation.
CYP3A4 or 2C8 Supersomes™ (BD Biosciences) were incubated at 37° C. for 30 min in the presence of AA (5 μM) in […] Tris-HCl, pH 7.4, containing 1 mm EDTA and 1 mm NADPH. Reactions were terminated by adding methylene chloride (0.5 ml). Samples were centrifuged at 3,000 rpm for 10 min and 150 μl of the organic phases were evaporated under nitrogen. […] Reaction extracts were chromatographed under the conditions described above, and ions of 319 m/z, corresponding to AA monooxygenation products, were selectively monitored in negative mode. Concentrations of EETs generated by CYP Supersomes™ were calculated by linear regression against standard curve generated with EET standards.

Take `CCCCCCNC(=N)NC(=N)NCc1ccccc1` [HBB, N1-hexyl-N5-benzyl-biguanide]: the pIC50 was 4.19 (read-out: IC50, CYP2C8 synthesis of (±)-8,9-EET); 4.30 (read-out: IC50, CYP2C8 synthesis of (±)-11,12-EET); 4.35 (read-out: IC50, CYP2C8 synthesis of (±)-14,15-EET).
